Experiments:
[1] = system: Xanthomonas campestris pv. campestris; experiment: Xanthomonas campestris pv. campestris in vitro cell test (bacteria growth in liquid culture); format: cell-based; settings: 20 ppm of tested compound; 24 h of incubation
Procedure: Example A: Xanthomonas Campestris pv. Campestris In Vitro Cell Test
Culture medium: LB broth medium (Luria Broth Miller) Sigma
Inoculum: bacteria suspension
Compounds to be tested were solubilized in DMSO and the solution used to prepare the required range of concentrations. The final concentration of DMSO used in the assay was ≤1%.
Inoculum was prepared from a pre-culture of bacteria grown in liquid medium and diluted to the desired optical density (OD).
Compounds were evaluated for their ability to inhibit bacteria growth in liquid culture assay. The compounds were added in the desired concentrations to culture medium containing the bacteria suspension. After 24 h of incubation, the efficacy of compounds was determined by spectrometric measurement of bacteria growth. Inhibition was determined by comparing the absorbance values in wells containing the compounds with the absorbance in control wells without compounds.

[2] = Log P by HPLC on reversed phase columns (EEC directive 79/831 Annex V.A8); format: physicochemical; settings: for chromatographic logP: reversed phase HPLC columns
Procedure: In the above tables, measurement of Log P values was performed according to EEC directive 79/831 Annex V.A8 by HPLC (High Performance Liquid Chromatography) on reversed phase columns with the following methods: • ^[a]
If more than one Log P value is available within the same method, all the values are given and separated by “+”.
Calibration was done with straight-chain alkan2-ones (with 3 to 16 carbon atoms) with known Log P values (measurement of Log P values using retention times with linear interpolation between successive alkanones). Lambda-max-values were determined using UV-spectra from 200 nm to 400 nm and the peak values of the chromatographic signals.

[3] = system: Xanthomonas campestris pv. campestris; experiment: In vivo preventive test on Xanthomonas campestris pv. campestris (black rot on cabbage); settings: Example C comparative table; same conditions as described in Example B; concentration not given
Procedure: Example B: In Vivo Preventive Test on Xanthomonas campestris pv. Campestris (Black Rot on Cabbage)
The tested compounds were prepared by homogenization in a mixture of acetone/Dimethyl sulfoxide/Tween®, and then diluted with water to obtain the desired concentration.
The young plants of cabbage were treated by spraying the compound prepared as described above. Control plants were treated only with an aqueous solution of acetone/Dimethyl sulfoxide/Tween®.
After 72 hours, the plants were contaminated by spraying the leaves with an aqueous bacteria suspension of Xanthomonas campestris pv. campestris. The contaminated cabbage plants were incubated for 8 or 10 days at 27° C. at 95% relative humidity.
The test was evaluated 8 or 10 days after the inoculation. 0% means an efficacy which corresponds to that of the control plants while an efficacy of 100% means that no disease was observed.
Compounds CMP3, CMP4, CMP5 and CMP6 were tested in an in vivo preventive test on Xanthomonas campestris pv. campestris (black rot on cabbage) in the same conditions as described in Example B.

[4] = method [a]: LC-UV, acidic range, 0.1% formic acid in water and acetonitrile as eluent

chromatographic logP [2, 4] | chromatographic logP ([2]; value given in preparation example, method variant not stated) | LogP [2, 4] | SMILES | direct activity (inhibition of bacteria growth) [1] | Efficacy (%) [3] [%]
4.32 | 4.32 |  | CCOC(=O)[C@@H](NC(=O)c1sc(Br)c(Br)c1C)C(C)C (racemic) [I.04, ethyl N-[(4,5-dibromo-3-methyl-2-thienyl)carbonyl]-valinate] | no direct activity | >90
 |  |  | CC(C)CC(NC(=O)c1cc(Br)c(Br)s1)C(=O)O (centres unmarked) [CMP6, reference compound] |  | 15
 |  | 3.02^[a] | CCOC(=O)CNC(=O)c1sc(Br)c(Br)c1C [I.02] | no direct activity | >80
 |  | 2.39^[a] | Cc1c(C(=O)NC(C)C(=O)O)sc(Br)c1Br (centres unmarked) [I.79] |  | >70
 |  |  | Cc1c(C(=O)NC(CC(C)C)C(=O)O)sc(Br)c1Br (centres unmarked) [I.90] |  | >70
